Among the data in the METLIN SMRT retention time set (Domingo-Almenara et al. 2019) are RP-LC retention time values, retold here.

The series is described as follows: gradient 5% acetonitrile 3 min, to 50% in 2 min, to 85% in 15 min, held 3 min, 100 µL/min. The note with it: column: Zorbax Extend-C18 2.1 x 50 mm; eluents: water / acetonitrile, 0.1% formic acid. A digest of the protocol: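 In both positive and negative ionization mode, a quadrupole time-of-flight mass spectrometer coupled to HPLC analyzed pure standards run in mixtures of ~100 molecules. The Zorbax Extend-C18 column (2.1 × 50 mm, 1.8 μm) was operated at 100 μL/min with water and acetonitrile, each containing 0.1% formic acid. The dead volume was 40 μL and the dwell volume 900 μL. Retention time came from adduct peaks that were computationally picked and individually inspected by hand.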
`CCc1csc(-c2cn(CC(=O)NCc3ccc(Cl)cc3)cn2)n1`: the RP-LC retention time worked out at 724 s.

For the compound `Cc1ccc2c(c1)N(S(C)(=O)=O)CCC(C(=O)NC1CC3CCC1C3)O2` (stereo not given), the RP-LC retention time is 941 s.

In turn, `CC1CCN(c2cc(-n3cnc(C(=O)Nc4ccc5c(c4)OCCO5)c3)ncn2)CC1` had an RP-LC retention time of 1030 s.

`CCCn1c(C)cnc1C1CN(S(=O)(=O)c2ccccc2)C1` returned an RP-LC retention time of 565 s.

Compound `COCCN1C(=O)[C@H]2CN(Cc3cccc(Cl)c3F)C[C@H]2C1=O` yielded an RP-LC retention time of 685 s.

The compound `O=C(Cn1c(-c2cccs2)cc2ccccc21)N1CCN(C(=O)c2ccco2)CC1` displayed an RP-LC retention time of 908 s.

In the case of `CCC(C)N(CC(=O)N1CCc2sccc2C1COc1ccc(Cl)cc1)C(=O)COC` (stereo not given), the RP-LC retention time was 955 s.

In the case of `Cc1cnc(C(=O)NC2C[C@H]3CC[C@@H](C2)N3C(=O)CCC2CCCCC2)cn1` (stereo not given in full), the RP-LC retention time turned out to be 821 s.

The compound `CCc1ccc(CNC(=O)C2CCN(c3ncccc3S(=O)(=O)N3CCCCC3)CC2)cc1` gave an RP-LC retention time of 1040 s.

Take `COCc1c(C(=O)O)nnn1-c1ccc(OC)c(OC)c1`: the RP-LC retention time turned out to be 626 s.

Compound `O=c1c(=O)n(-c2ccccc2)ccn1Cc1nc(-c2cccc(Br)c2)no1` showed an RP-LC retention time of 885 s.

`O=C(CN1CCN(Cc2ccccc2)C1=O)NCc1cccc(Cl)c1` gave an RP-LC retention time of 822 s.

Compound `CCc1ccccc1NC(=O)Cc1c(C)nn(-c2nc(-c3ccccc3)cs2)c1C` yielded an RP-LC retention time of 704 s.

`O=C(NCc1ccccn1)c1ccc2c(c1)CCCN2S(=O)(=O)c1ccccc1` returned an RP-LC retention time of 703 s.

`CCCN1C(=O)COc2ccc(-c3noc(-c4ccc(C#N)cc4)n3)cc21` displayed an RP-LC retention time of 1130 s.

For `CCOc1ccc(-c2[nH]ncc2CNS(=O)(=O)Cc2ccc(C)cc2)cc1`, the RP-LC retention time came out at 853 s.

`O=C([C@@H]1C[C@H](F)CN1S(=O)(=O)c1ccc(Cl)s1)N1CCc2ccccc2C1` had an RP-LC retention time of 955 s.

Compound `CC(C)CN1CCn2cc(S(=O)(=O)NCc3ccccc3F)cc2C1=O` gave an RP-LC retention time of 792 s.

The compound `CSc1nsc(SCC(=O)Nc2nc(-c3ccccc3)cs2)n1` registered an RP-LC retention time of 1070 s.

Compound `CCSc1nnc(-c2nn(C)c3c2CN(S(=O)(=O)c2cc(F)ccc2F)CC3)n1CC` came in with an RP-LC retention time of 949 s.

Regarding `O=C(NCC1CCCO1)c1cccc(Nc2c(-c3ccccc3)nc3cnccn23)c1` (stereo not given), the RP-LC retention time is 679 s.

Compound `CC(NC(=O)CCCc1ccccc1)C(=O)N1CCN(c2ccccn2)CC1` (stereo not given) returned an RP-LC retention time of 626 s.

In the case of `COc1cccc(CC(=O)N2CCC3(CC2)N=C(c2ccc(Cl)cc2)NO3)c1`, the RP-LC retention time came out at 922 s.

For the compound `CC1CS(=O)(=O)N(c2ccc(S(=O)(=O)Nc3ccccc3C(F)(F)F)cc2)C1=O` (stereo not given), the RP-LC retention time was 819 s.

`Cc1noc(C)c1S(=O)(=O)N1CCC(Cc2ccc(COc3ccncc3)cc2)CC1` gave an RP-LC retention time of 831 s.

Compound `COc1ccc(C)cc1NC(=O)N1CC(c2nc(C(C)C)nn2C)C1` showed an RP-LC retention time of 710 s.

Turning to `CCn1ccc(C(=O)NC(C(=O)N2CCCc3ccccc32)c2ccccc2)n1` (stereo not given), the RP-LC retention time came out at 967 s.

As for `O=C(Cn1nc(N2CCCCCC2)c2ccccc2c1=O)Nc1ccc2c(c1)OCCO2`, the RP-LC retention time was found to be 1010 s.

The compound `CCc1nc2cc(-c3noc(Cc4c(F)cccc4Cl)n3)ccc2o1` gave an RP-LC retention time of 1150 s.

`Cc1cccc(-c2nnc3ccc(Cl)nn23)c1` had an RP-LC retention time of 823 s.

`COCCNC(=O)c1cn(C)c2ncccc12` returned an RP-LC retention time of 582 s.

The compound `Cc1cccc(C)c1NC(=O)C1CCCN(c2nc3c(s2)c(C)nn3-c2cccc(F)c2)C1` (stereo not given) registered an RP-LC retention time of 1230 s.

As for `CCCCCn1c(=O)c2ccccc2n(Cc2nc(-c3ccccc3Cl)no2)c1=O`, the RP-LC retention time worked out at 1260 s.

In turn, `O=C(c1cccc(C(F)(F)F)c1)N1CCN(c2cc(-n3ccnc3)ncn2)CC1` registered an RP-LC retention time of 606 s.

On to `Cc1ccc(C(=O)NCc2[nH]nc3ccccc23)cc1C`, for which the RP-LC retention time came out at 788 s.

In turn, `CCOC(=O)c1c(CN2CCN(CCO)CC2)n(C)c2cc(Br)c(OC(C)=O)cc12` registered an RP-LC retention time of 679 s.

Compound `CC(=O)c1ccc(NC(=O)Cn2c(C)cc(-c3nnc(C4CCC4)o3)c2C)cc1` came in with an RP-LC retention time of 813 s.

`O=C(Nc1cnc(-c2ccc(C(F)(F)F)cc2)nc1)C1CCOC1` (stereo not given): the RP-LC retention time was found to be 888 s.

In turn, `O=C(NCc1cccs1)c1ccc2c(c1)NC(=O)C1CCCCN21` (stereo not given) returned an RP-LC retention time of 688 s.

On to `Cn1cc(C(=O)NCc2cccc(C(F)(F)F)c2)c2cccnc21`, for which the RP-LC retention time turned out to be 818 s.

`O=S(=O)(c1ccc(-c2nnc(C3CCC3)o2)o1)N1CCN(C2CCCCC2)CC1` displayed an RP-LC retention time of 690 s.

`COc1ccc(NC(=O)c2cc(C(C)(C)C)n3nccc3n2)cc1OC` displayed an RP-LC retention time of 1110 s.

Regarding `CSc1nc2ccc3nc(NC(=O)c4c(F)cccc4F)sc3c2s1`, the RP-LC retention time was 990 s.

Compound `O=C(Nc1ccc2c(c1)OCO2)N1CCN(c2ccc3nnc(C4CC4)n3n2)CC1` had an RP-LC retention time of 613 s.

In turn, `COC(=O)c1ccccc1NC(=O)C1(c2cccs2)CCOCC1` came in with an RP-LC retention time of 1030 s.

As for `COC(=O)c1ccc2c(=O)n(-c3ccc4c(c3)OCO4)c(N3CCOCC3)nc2c1`, the RP-LC retention time came to 875 s.

`CCSc1nc2ccc(NS(=O)(=O)c3ccc(C)cc3C)cc2s1` displayed an RP-LC retention time of 1110 s.

The compound `Cc1cc(C)n(-c2ncnc3c2cnn3Cc2ccccc2)n1` had an RP-LC retention time of 1240 s.

For `Cc1cc2nc(N3CCOCC3)n(CC(=O)Nc3cc(F)cc(F)c3)c(=O)c2n1C`, the RP-LC retention time worked out at 677 s.

`O=C1CN(C(=O)Cc2ccc(OC(F)(F)F)cc2)C2(CCCC2)CN1` displayed an RP-LC retention time of 790 s.

On to `COc1cccc(-c2nc(-c3ccc4c(c3)oc(=O)n4C(C)C)no2)c1OC`, for which the RP-LC retention time was 1140 s.

Compound `CCOc1ccc(CNC(=O)C2CCCN(c3nn4c(=O)c5c(nc4s3)CCCC5)C2)cc1` (stereo not given) registered an RP-LC retention time of 784 s.

Turning to `COC(=O)c1c(C)[nH]c(C(=O)N2CCC(CC(=O)NCc3ccc(C)cc3)CC2)c1C`, the RP-LC retention time turned out to be 762 s.

As to `CC(C)N1CCN(C(=O)c2ccc(-c3ccnc(N4CCCC4)n3)cc2)CC1`, the RP-LC retention time was found to be 562 s.

In turn, `COc1ccc(NC(=O)c2cccn(C)c2=O)cc1N1CCCC1=O` came in with an RP-LC retention time of 618 s.

As to `Cc1cc(OCC(=O)NCc2ccco2)nc(-c2ccc(Cl)cc2)n1`, the RP-LC retention time was found to be 1000 s.

`COc1ccc(Cn2nc3ccc(S(=O)(=O)N4CCCC4)cn3c2=O)cc1` showed an RP-LC retention time of 827 s.

Compound `C/C(=C\c1csc(C)n1)C1C[C@@H]2O[C@]2(C)CCC[C@H](C)[C@H](O)[C@@H](C)C(=O)C(C)(C)[C@@H](O)CC(=O)N1` (stereo not given in full) had an RP-LC retention time of 668 s.

`CCC(=O)N(C)CCc1noc(-c2ccc(C(=O)NCCCOC)cc2)n1`: the RP-LC retention time worked out at 650 s.

The compound `Cc1ccsc1CN1CCc2oc(C)c(C(=O)N3CCOCC3)c2C1` had an RP-LC retention time of 536 s.

In the case of `O=S(=O)(CCCOc1ccc(F)cc1)NCC1CCCO1` (stereo not given), the RP-LC retention time was determined as 763 s.

Compound `Brc1ccc(-c2ccc(CNCC3CCCO3)o2)cc1` (stereo not given) returned an RP-LC retention time of 703 s.

Compound `Cc1cc(NC(=O)CSc2c(-c3ccccc3)[nH]c3ccccc23)no1` displayed an RP-LC retention time of 846 s.

In turn, `Cc1noc(C)c1-c1ccc(S(=O)(=O)N2CCN(c3ccccc3)CC2)cc1` showed an RP-LC retention time of 1080 s.

`Cc1ccc(-c2coc(-c3ccc(NC(=O)C(C)(C)C)cc3)n2)cc1` displayed an RP-LC retention time of 1220 s.

The compound `CC(=O)Nc1ccc(-c2noc(C3CCCN(C(=O)c4ccoc4)C3)n2)cc1` (stereo not given) gave an RP-LC retention time of 731 s.

Regarding `Cc1ncc2c(n1)CCN(S(=O)(=O)c1ccc(Br)s1)C2`, the RP-LC retention time came out at 778 s.

`COCC(=O)N1N=C(c2cccc(NS(C)(=O)=O)c2)CC1c1ccccc1F` (stereo not given) showed an RP-LC retention time of 718 s.

`COC1CN(c2ccc(C)cc2)C12CCN(C(=O)C1(c3ccccc3)CC1)CC2` (stereo not given): the RP-LC retention time is 1100 s.

In the case of `COc1ccc(C)cc1NC(=O)N1CCC2(CC1)NC(=O)c1ccccc1N2C`, the RP-LC retention time came to 807 s.

`CC1CCN(C(=O)c2cn(-c3ccc(-c4nc(C5CC5)no4)cn3)cn2)CC1` gave an RP-LC retention time of 912 s.

`CCc1nc2cc(-c3noc(-c4cnccn4)n3)ccc2o1` displayed an RP-LC retention time of 830 s.

Take `COc1ccc(-c2ncc3c(n2)CCN(S(=O)(=O)c2cccc(C(F)(F)F)c2)C3)cc1`: the RP-LC retention time stood at 1110 s.

On to `Cc1ccsc1-c1nc(-c2ccc3ncn(C)c3c2)no1`, for which the RP-LC retention time worked out at 732 s.

As for `COc1ccc(C(=O)N2C[C@@H]3C[C@H]2C[C@@H]3NC(=O)c2cccnc2)cc1F`, the RP-LC retention time turned out to be 618 s.

As to `Cc1nn2c(S(=O)(=O)N3CCC4(CC3)OCCO4)c(C)nc2s1`, the RP-LC retention time came to 692 s.

With `CCN1c2cc(Cl)ccc2C(=O)NC12CCN(C(=O)NCc1ccc(F)cc1)CC2`, the RP-LC retention time is 840 s.

The compound `COc1ccc(-c2nnc(Cc3nc(-c4ccc(OC)c(F)c4)no3)o2)cc1` registered an RP-LC retention time of 1040 s.

`O=C(Nc1ccc2nncn2c1)Nc1ccccc1Cl` gave an RP-LC retention time of 718 s.

`Cc1sc2cc(C(=O)N3CCCC3)[nH]c2c1CN1CCCCC1` showed an RP-LC retention time of 646 s.
